These results are taken from ChEMBL document CHEMBL4261580, “Novel antitumor compound optimized from natural saponin Albiziabioside A induced caspase-dependent apoptosis and ferroptosis as a p53 activator through the mitochondrial pathway” (Eur J Med Chem, 2018).

By IC50 is commonly meant the concentration at which inhibition is half-maximal. A high value points to weaker potency in that assay.

What all share (format): functional, cell-based
Experiment [1] has as its system HCT-116. Put plainly: Antiproliferative activity against human HCT116 cells after 72 hrs by MTT assay. Particulars: HCT-116, 72 h.
Experiment [2] relates to MCF7. The experiment in a line: Antiproliferative activity against human MCF7 cells after 72 hrs by MTT assay. Particulars: MCF7, 72 h. On the technique in general: Formazan colour is commonly taken as a measure of viable cells.
Experiment [3] relates to A549. The experiment in a line: Antiproliferative activity against human A549 cells after 72 hrs by MTT assay. The conditions noted are these: A549, 72 h.
Experiment [4] deals with MGC-803. The experiment in a line: Antiproliferative activity against human MGC803 cells after 72 hrs by MTT assay. The conditions noted are these: MGC-803, 72 h.
For experiment [5], the system named is HepG2. The experiment in a line: Antiproliferative activity against human HepG2 cells after 72 hrs by MTT assay. The conditions noted are these: HepG2, 72 h.

Consider `CC(=O)N[C@H]1[C@H](O[C@H]2CC[C@]3(C)[C@H]4CC=C5[C@@H]6CC(C)(C)CC[C@]6(C(=O)OCc6cn(-c7ccc(Br)cc7)nn6)CC[C@@]5(C)[C@]4(C)CC[C@H]3C2(C)C)O[C@H](CO[C@@H]2OC[C@H](O)[C@H](O)[C@@H]2O)[C@@H](O)[C@@H]1O`, for which the concentration for half-maximal inhibition (IC50) in experiment [1] is 22.9 µM; in experiment [2] it was 26.2 µM; in experiment [3], 12.5 µM; in experiment [4], 12.4 µM; in experiment [5] it was 12.6 µM.

For the compound `CC(=O)N[C@H]1[C@H](O[C@H]2CC[C@]3(C)[C@H]4CC=C5[C@@H]6CC(C)(C)CC[C@]6(C(=O)OCc6cn(-c7ccc(Cl)cc7)nn6)CC[C@@]5(C)[C@]4(C)CC[C@H]3C2(C)C)O[C@H](CO[C@@H]2OC[C@H](O)[C@H](O)[C@@H]2O)[C@@H](O)[C@@H]1O`, the IC50 stood at 37.9 µM in experiment [1]; 67.1 µM in experiment [2]; 38.7 µM in experiment [3]; 24.9 µM in experiment [4]; 28.4 µM in experiment [5].

Regarding `CC(=O)N[C@H]1[C@H](O[C@H]2CC[C@]3(C)[C@H]4CC=C5[C@@H]6CC(C)(C)CC[C@]6(C(=O)OCc6cn(-c7cccc(C)c7)nn6)CC[C@@]5(C)[C@]4(C)CC[C@H]3C2(C)C)O[C@H](CO[C@@H]2OC[C@H](O)[C@H](O)[C@@H]2O)[C@@H](O)[C@@H]1O`, the 50% inhibitory concentration (IC50) in experiment [1] turned out to be 7.1 µM; in experiment [2], 20.2 µM; in experiment [3], 14.5 µM; in experiment [4], 11 µM; in experiment [5], 10.6 µM.

As for `COc1cccc(-n2cc(COC(=O)[C@]34CCC(C)(C)C[C@H]3C3=CC[C@@H]5[C@@]6(C)CC[C@H](O[C@@H]7O[C@H](CO[C@@H]8OC[C@H](O)[C@H](O)[C@@H]8O)[C@@H](O)[C@H](O)[C@H]7NC(C)=O)C(C)(C)[C@@H]6CC[C@@]5(C)[C@]3(C)CC4)nn2)c1`, the IC50 was 12.4 µM in experiment [1]; 20.9 µM in experiment [2]; 13.3 µM in experiment [3]; 11.6 µM in experiment [4]; 6.47 µM in experiment [5].

Take `CC(=O)N[C@H]1[C@H](O[C@H]2CC[C@]3(C)[C@H]4CC=C5[C@@H]6CC(C)(C)CC[C@]6(C(=O)OCc6cn(-c7ccccc7)nn6)CC[C@@]5(C)[C@]4(C)CC[C@H]3C2(C)C)O[C@H](CO[C@@H]2OC[C@H](O)[C@H](O)[C@@H]2O)[C@@H](O)[C@@H]1O`: the half-maximal inhibitory concentration (IC50) in experiment [1] worked out at 25.2 µM; in experiment [2] it was 21.9 µM; in experiment [3], 9.97 µM; in experiment [4] it was 19.6 µM; in experiment [5] it was 18.3 µM.

For the compound `CC(=O)N[C@H]1[C@H](O[C@H]2CC[C@]3(C)[C@H]4CC=C5[C@@H]6CC(C)(C)CC[C@]6(C(=O)OCc6cn(-c7ccc(C(F)(F)F)cc7)nn6)CC[C@@]5(C)[C@]4(C)CC[C@H]3C2(C)C)O[C@H](CO[C@@H]2OC[C@H](O)[C@H](O)[C@@H]2O)[C@@H](O)[C@@H]1O`, the half-maximal inhibitory concentration (IC50) stood at 12.4 µM in experiment [1]; 15.1 µM in experiment [2]; 14.2 µM in experiment [3]; 12.8 µM in experiment [4]; 11.8 µM in experiment [5].

Turning to `CC(=O)N[C@H]1[C@H](O[C@H]2CC[C@]3(C)[C@H]4CC=C5[C@@H]6CC(C)(C)CC[C@]6(C(=O)OCc6cn(-c7cccc([N+](=O)[O-])c7)nn6)CC[C@@]5(C)[C@]4(C)CC[C@H]3C2(C)C)O[C@H](CO[C@@H]2OC[C@H](O)[C@H](O)[C@@H]2O)[C@@H](O)[C@@H]1O`, the concentration for half-maximal inhibition (IC50) was found to be 27.1 µM in experiment [1]; 25.8 µM in experiment [2]; 37.2 µM in experiment [3]; 37.8 µM in experiment [4]; 33.3 µM in experiment [5].

Consider `CC(=O)N[C@H]1[C@H](O[C@H]2CC[C@]3(C)[C@H]4CC=C5[C@@H]6CC(C)(C)CC[C@]6(C(=O)OCc6cn(-c7cccc(C#N)c7)nn6)CC[C@@]5(C)[C@]4(C)CC[C@H]3C2(C)C)O[C@H](CO[C@@H]2OC[C@H](O)[C@H](O)[C@@H]2O)[C@@H](O)[C@@H]1O`, for which the half-inhibitory concentration (IC50) amounted to 27 µM in experiment [1]; 27.7 µM in experiment [2]; 29.2 µM in experiment [3]; 28.8 µM in experiment [4]; 27.7 µM in experiment [5].

Consider `CC(=O)N[C@H]1[C@H](O[C@H]2CC[C@]3(C)[C@H]4CC=C5[C@@H]6CC(C)(C)CC[C@]6(C(=O)OCc6cn(-c7ccccc7F)nn6)CC[C@@]5(C)[C@]4(C)CC[C@H]3C2(C)C)O[C@H](CO[C@@H]2OC[C@H](O)[C@H](O)[C@@H]2O)[C@@H](O)[C@@H]1O`, for which the IC50 came to 23.5 µM in experiment [1]; 47.6 µM in experiment [2]; 24.2 µM in experiment [3]; 20.7 µM in experiment [4]; 18.9 µM in experiment [5].

On to `CCOc1ccc(-n2cc(COC(=O)[C@]34CCC(C)(C)C[C@H]3C3=CC[C@@H]5[C@@]6(C)CC[C@H](O[C@@H]7O[C@H](CO[C@@H]8OC[C@H](O)[C@H](O)[C@@H]8O)[C@@H](O)[C@H](O)[C@H]7NC(C)=O)C(C)(C)[C@@H]6CC[C@@]5(C)[C@]3(C)CC4)nn2)cc1`, for which the IC50 stood at 16.6 µM in experiment [1]; 24.5 µM in experiment [2]; 19.7 µM in experiment [3]; 21.3 µM in experiment [4]; 13.6 µM in experiment [5].

With `O=c1[nH]cc(F)c(=O)[nH]1` [FLUOROURACIL], the 50% inhibitory concentration (IC50) in experiment [1] was determined as 38.3 µM; in experiment [3], 71.1 µM; in experiment [4], 31 µM; in experiment [5], 48 µM.

Turning to `CC(=O)N[C@H]1[C@H](O[C@H]2CC[C@]3(C)[C@H]4CC=C5[C@@H]6CC(C)(C)CC[C@]6(C(=O)OCc6cn(-c7ccc(C#N)cc7)nn6)CC[C@@]5(C)[C@]4(C)CC[C@H]3C2(C)C)O[C@H](CO[C@@H]2OC[C@H](O)[C@H](O)[C@@H]2O)[C@@H](O)[C@@H]1O`, the IC50 in experiment [1] came to 8.86 µM; in experiment [2], 15.8 µM; in experiment [3] it was 22.6 µM; in experiment [4], 18.2 µM; in experiment [5], 17.5 µM.

`CC(=O)N[C@H]1[C@H](O[C@H]2CC[C@]3(C)[C@H]4CC=C5[C@@H]6CC(C)(C)CC[C@]6(C(=O)OCc6cn(-c7ccc(C)cc7C)nn6)CC[C@@]5(C)[C@]4(C)CC[C@H]3C2(C)C)O[C@H](CO[C@@H]2OC[C@H](O)[C@H](O)[C@@H]2O)[C@@H](O)[C@@H]1O`: the half-maximal inhibitory concentration (IC50) is 47.6 µM in experiment [1]; 44.6 µM in experiment [2]; 42.3 µM in experiment [3]; 46.9 µM in experiment [4]; 40.4 µM in experiment [5].

As to `COc1ccccc1-n1cc(COC(=O)[C@]23CCC(C)(C)C[C@H]2C2=CC[C@@H]4[C@@]5(C)CC[C@H](O[C@@H]6O[C@H](CO[C@@H]7OC[C@H](O)[C@H](O)[C@@H]7O)[C@@H](O)[C@H](O)[C@H]6NC(C)=O)C(C)(C)[C@@H]5CC[C@@]4(C)[C@]2(C)CC3)nn1`, the IC50 in experiment [1] is 55.8 µM; in experiment [2], 53.1 µM; in experiment [3], 59.9 µM; in experiment [4] it was 53 µM; in experiment [5], 49.7 µM.

For `CC(=O)N[C@H]1[C@H](O[C@H]2CC[C@]3(C)[C@H]4CC=C5[C@@H]6CC(C)(C)CC[C@]6(C(=O)OCc6cn(-c7cccc(Cl)c7)nn6)CC[C@@]5(C)[C@]4(C)CC[C@H]3C2(C)C)O[C@H](CO[C@@H]2OC[C@H](O)[C@H](O)[C@@H]2O)[C@@H](O)[C@@H]1O`, the IC50 in experiment [1] came to 11.5 µM; in experiment [2] it was 18.7 µM; in experiment [3], 7.69 µM; in experiment [4], 10.9 µM; in experiment [5], 8.1 µM.

For the compound `CC(=O)N[C@H]1[C@H](O[C@H]2CC[C@]3(C)[C@H]4CC=C5[C@@H]6CC(C)(C)CC[C@]6(C(=O)OCc6cn(-c7ccccc7C)nn6)CC[C@@]5(C)[C@]4(C)CC[C@H]3C2(C)C)O[C@H](CO[C@@H]2OC[C@H](O)[C@H](O)[C@@H]2O)[C@@H](O)[C@@H]1O`, the IC50 in experiment [1] came to 10.9 µM; in experiment [2], 86.9 µM; in experiment [3], 63.7 µM; in experiment [4] it was 58.1 µM; in experiment [5] it was 51.3 µM.

Turning to `COC(=O)c1ccccc1-n1cc(COC(=O)[C@]23CCC(C)(C)C[C@H]2C2=CC[C@@H]4[C@@]5(C)CC[C@H](O[C@@H]6O[C@H](CO[C@@H]7OC[C@H](O)[C@H](O)[C@@H]7O)[C@@H](O)[C@H](O)[C@H]6NC(C)=O)C(C)(C)[C@@H]5CC[C@@]4(C)[C@]2(C)CC3)nn1`, the concentration for half-maximal inhibition (IC50) in experiment [1] was 38.2 µM; in experiment [2] it was 86.8 µM; in experiment [3] it was 66.7 µM; in experiment [4], 76.3 µM; in experiment [5] it was 68.9 µM.

With `CC(=O)N[C@H]1[C@H](O[C@H]2CC[C@]3(C)[C@H]4CC=C5[C@@H]6CC(C)(C)CC[C@]6(C(=O)OCc6cn(-c7ccc(C(C)=O)cc7)nn6)CC[C@@]5(C)[C@]4(C)CC[C@H]3C2(C)C)O[C@H](CO[C@@H]2OC[C@H](O)[C@H](O)[C@@H]2O)[C@@H](O)[C@@H]1O`, the IC50 in experiment [1] stood at 12.8 µM; in experiment [2], 14.8 µM; in experiment [3], 14 µM; in experiment [4], 17.1 µM; in experiment [5] it was 11.5 µM.

In the case of `CC(=O)N[C@H]1[C@H](O[C@H]2CC[C@]3(C)[C@H]4CC=C5[C@@H]6CC(C)(C)CC[C@]6(C(=O)OCc6cn(-c7ccc(Cl)cc7Cl)nn6)CC[C@@]5(C)[C@]4(C)CC[C@H]3C2(C)C)O[C@H](CO[C@@H]2OC[C@H](O)[C@H](O)[C@@H]2O)[C@@H](O)[C@@H]1O`, the IC50 in experiment [1] came to 38.8 µM; in experiment [2], 29.1 µM; in experiment [3] it was 36 µM; in experiment [4], 31.3 µM; in experiment [5] it was 32.7 µM.

As to `COc1ccc(-n2cc(COC(=O)[C@]34CCC(C)(C)C[C@H]3C3=CC[C@@H]5[C@@]6(C)CC[C@H](O[C@@H]7O[C@H](CO[C@@H]8OC[C@H](O)[C@H](O)[C@@H]8O)[C@@H](O)[C@H](O)[C@H]7NC(C)=O)C(C)(C)[C@@H]6CC[C@@]5(C)[C@]3(C)CC4)nn2)cc1`, the IC50 in experiment [1] is 20 µM; in experiment [2], 19.7 µM; in experiment [3], 20.7 µM; in experiment [4], 19.7 µM; in experiment [5], 12.2 µM.
